From patent US9034303B2, “Neuroprotective and neuro-restorative iron chelators and monoamine oxidase inhibitors and uses thereof” (priority 2010, dated 2015)
Entries after “also recorded” stand apart in the source; their conditions may differ. Marks after values point to notes of the source that are not given here.

Key:
[1] = Stability in aqueous solution (PBS or saline) followed by HPLC; format: physicochemical; details: for Stability in aqueous solution (in words): PBS and/or saline solution; for Amount of compound remaining (%): 0.5 mM
Method: (§1) Using high pressure liquid chromatography (HPLC), the stability of each of the tested compounds was determined by following its respective chemical character over time in either phosphate buffered saline (PBS) and/or 0.85% saline solution (sodium chloride). In each case, 0.5 mM of the tested compound in PBS or saline solution was incubated at 25° C. or at 37° C. for 20 hours or, in some cases, up to two days (48 hours).

[2] = Follow-up stability experiment at 37° C. in PBS; format: physicochemical
Method: as §1
In addition, in a follow-up experiment the instability of M30, and the stability of compounds 3, 7 and 8 was also confirmed at 37° C. in PBS, Table 2, below.

Row | SMILES | Stability in aqueous solution (in words) [1] | Amount of compound remaining (%) ([1]; PBS, 25° C., 0.5 hours) | Amount of compound remaining (%) ([2]; 3 hours) | Amount of compound remaining (%) ([2]; 8 hours) | Amount of compound remaining (%) ([2]; 24 hours) | Amount of compound remaining (%) ([2]; 48 hours) | other results
1 | C#CCN(C)C(C)c1ccc(O)c2ncccc12 (centres unmarked) [5-(1-(methyl(prop-2-ynyl) amino)ethyl)quinolin-8-ol] | **Decomposition of 5-(1-(methyl(prop-2-ynyl) amino)ethyl)quinolin-8-ol occurred immediately upon dissolution in PBS aspredicted by the working hypothesis | – | – | – | – | – | –
2 | C#CCN(C)C(C)c1ccc(O)c2ncccc12 (centres unmarked) [5-(1-(methyl(prop-2-ynyl)amino)ethyl)quinolin-8-ol] [5-[1-(methyl-2-propyn-1-ylamino)ethyl]-8-quinolinol] | decomposed immediately | 0.0** % | – | – | – | – | –
3 | C#CCN(C)CCc1cc(C2CC2)c(O)c2ncccc12 [Compound 7, 7-cyclopropyl-5-[2-(methyl-2-propyn-1-ylamino)ethyl]-8-quinolinol] | – | – | 99.7% | 97.7 | 94.1% | 100% | –
4 | C#CCN(C)CCc1cc(F)c(O)c2ncccc12 [Compound 8, 7-fluoro-5-[2-(methyl-2-propyn-1-ylamino)ethyl]-8-quinolinol] | – | – | ≧100% | 96.7 | ≧100% | ≧100% | –
5 | C#CCN(C)CCc1ccc(OC)c2ncccc12 [[O-Methyl-Compound 3], 8-methoxy-N-methyl-N-2-propyn-1-yl-5-quinolineethanamine] | highly stable chemically; also recorded: stable in PBS at 37 °C for at least two days | 100% | – | – | – | – | Amount of compound remaining (%) ([1]; PBS, 25° C., 2 hours): 100%; Amount of compound remaining (%) ([1]; PBS, 25° C., 20 hours): 100%; Amount of compound remaining (%) ([1]; PBS, 25° C., 48 hours): 100%; Amount of compound remaining (%) ([1]; saline, 37° C., 0.5 hours): 100%; Amount of compound remaining (%) ([1]; saline, 37° C., 2 hours): 100%; Amount of compound remaining (%) ([1]; saline, 37° C., 20 hours): 100%; Amount of compound remaining (%) ([1]; saline, 37° C., 48 hours): 100%
